Experimental findings from article PMC12616683, “In Vivo Atlas of Neuroprotective Cyclic Dipeptides Derived from Food Gelatin Using Peptidomics and Feature-Based Molecular Networking” (Journal of Agricultural and Food Chemistry, 2025) are described below.

A short description of this data set: FBMN analysis of short peptides in small intestine contents and serum after oral DHG. The settings on record: for Peptide signal (feature intensity) in the small intestine, 30 min / Peptide signal (feature intensity) in the small intestine, 60 min / Peptide signal (feature intensity) in the small intestine, 120 min / Peptide signal (feature intensity) in the small intestine, 240 min: small intestine contents, C57 mice, FBMN feature intensity, peptides smaller than 690 Da; for Peptide signal (feature intensity) in the small intestine, 30 min: 30 min after oral DHG; for Peptide signal (feature intensity) in the small intestine, 60 min: 60 min after oral DHG; for Peptide signal (feature intensity) in the small intestine, 120 min: 120 min after oral DHG; for Peptide signal (feature intensity) in the small intestine, 240 min: 240 min after oral DHG; for time detected in serum (FBMN): time points 0.5-4 h after oral DHG.

Square brackets hold non-standard residues; d marks the D form. Peptide text beside a SMILES is read from it. pGlu = O=C1CC[CH](C(=O)O)N1

Regarding `NC(Cc1ccccc1)C(=O)N1CCCC1C(=O)O` (stereo not drawn) [Phe-Pro] (H-Phe-Pro-OH; configuration not given here), the “Peptide signal (feature intensity) in the small intestine, 30 min” value (shortened to “Peptide signal (feature intensity) … 30 min”) is listed as 1.25E+06; the “Peptide signal (feature intensity) in the small intestine, 60 min” value (from here on “Peptide signal (feature intensity) … 60 min”) is reported as 7.11E+05; the “Peptide signal (feature intensity) in the small intestine, 120 min” value (“Peptide signal (feature intensity) … 120 min” for short) stood at 1.63E+06; the “Peptide signal (feature intensity) in the small intestine, 240 min” value (from here on “Peptide signal (feature intensity) … 240 min”) turned out to be 3.02E+06.

For `C[C@@H](O)[C@H](NC(=O)[C@@H](N)Cc1ccccc1)C(=O)O` [Phe-Thr], the “Peptide signal (feature intensity) … 30 min” value is 4.05E+04; the “Peptide signal (feature intensity) … 60 min” value is listed as 6.53E+03; the “Peptide signal (feature intensity) … 120 min” value was found to be 0.00E+00; the “Peptide signal (feature intensity) … 240 min” value turned out to be 0.00E+00.

Regarding `NC(Cc1ccccc1)C(=O)NC(Cc1ccc(O)cc1)C(=O)O` (stereo not drawn) [Phe-Tyr] (H-Phe-Tyr-OH; configuration not given here), the “Peptide signal (feature intensity) … 30 min” value was 4.42E+05; the “Peptide signal (feature intensity) … 60 min” value was 1.79E+06; the “Peptide signal (feature intensity) … 120 min” value turned out to be 8.30E+05; the “Peptide signal (feature intensity) … 240 min” value worked out at 0.00E+00.

For `CC(C)C(NC(=O)C(N)Cc1ccccc1)C(=O)O` (stereo not drawn) [Phe-Val] (H-Phe-Val-OH; configuration not given here), the “Peptide signal (feature intensity) … 30 min” value amounted to 1.12E+06; the “Peptide signal (feature intensity) … 60 min” value came to 1.09E+06; the “Peptide signal (feature intensity) … 120 min” value was 0.00E+00; the “Peptide signal (feature intensity) … 240 min” value amounted to 0.00E+00.

Take `CC(C)CC(NC(=O)C1CCCN1)C(=O)O` (stereo not drawn) [Pro-Leu] (H-Pro-Leu-OH; configuration not given here): the “Peptide signal (feature intensity) … 30 min” value stood at 5.47E+07; the “Peptide signal (feature intensity) … 60 min” value came out at 1.43E+07; the “Peptide signal (feature intensity) … 120 min” value was determined as 0.00E+00; the “Peptide signal (feature intensity) … 240 min” value was found to be 0.00E+00.

Take `O=C(O)C(Cc1ccccc1)NC(=O)C1CCCN1` (stereo not drawn) [Pro-Phe] (H-Pro-Phe-OH; configuration not given here): the “Peptide signal (feature intensity) … 30 min” value is on record as 9.57E+05; the “Peptide signal (feature intensity) … 60 min” value was determined as 9.73E+05; the “Peptide signal (feature intensity) … 120 min” value is 1.22E+06; the “Peptide signal (feature intensity) … 240 min” value was 0.00E+00.

For `CCC(C)C(NC(=O)C1CCC(=O)N1)C(=O)O` (centres unmarked) [PyroGlu-Ile] ([pGlu]-Ile-OH; configuration not given here), the “time detected in serum (FBMN)” value is reported as “only detected in the first hour”; the “Peptide signal (feature intensity) … 30 min” value is 7.74E+05; the “Peptide signal (feature intensity) … 60 min” value came out at 1.17E+06; the “Peptide signal (feature intensity) … 120 min” value is listed as 5.33E+05. Moreover, the “Peptide signal (feature intensity) … 240 min” value is on record as 0.00E+00.

Regarding `CSCCC(NC(=O)C1CCC(=O)N1)C(=O)O` (centres unmarked) [PyroGlu-Met] ([pGlu]-Met-OH; configuration not given here), the “Peptide signal (feature intensity) … 30 min” value stood at 4.70E+06; the “Peptide signal (feature intensity) … 60 min” value was found to be 5.95E+06; the “Peptide signal (feature intensity) … 120 min” value turned out to be 0.00E+00; the “Peptide signal (feature intensity) … 240 min” value was determined as 0.00E+00.

As for `O=C1CCC(C(=O)NC(Cc2ccccc2)C(=O)O)N1` (centres unmarked) [PyroGlu-Phe], the “time detected in serum (FBMN)” value is on record as “only detected in the first hour”; the “Peptide signal (feature intensity) … 30 min” value is listed as 0.00E+00; the “Peptide signal (feature intensity) … 60 min” value is recorded as 1.13E+07; the “Peptide signal (feature intensity) … 120 min” value stood at 0.00E+00. In addition, the “Peptide signal (feature intensity) … 240 min” value worked out at 5.69E+06.

For `O=C1CCC(C(=O)N2CCCC2C(=O)O)N1` (centres unmarked) [PyroGlu-Pro] ([pGlu]-Pro-OH; configuration not given here), the “Peptide signal (feature intensity) … 30 min” value is 0.00E+00; the “Peptide signal (feature intensity) … 60 min” value is on record as 1.75E+07; the “Peptide signal (feature intensity) … 120 min” value is 0.00E+00; the “Peptide signal (feature intensity) … 240 min” value is given as 1.91E+07.

Consider `O=C1CCC(C(=O)NC(Cc2ccc(O)cc2)C(=O)O)N1` (centres unmarked) [PyroGlu-Tyr] ([pGlu]-Tyr-OH; configuration not given here), for which the “Peptide signal (feature intensity) … 30 min” value is recorded as 0.00E+00; the “Peptide signal (feature intensity) … 60 min” value stood at 2.55E+07; the “Peptide signal (feature intensity) … 120 min” value is on record as 0.00E+00; the “Peptide signal (feature intensity) … 240 min” value came to 1.33E+07.

Regarding `CC(C)[C@H](NC(=O)[C@@H]1CCC(=O)N1)C(=O)O` [PyroGlu-Val] (HELM PEPTIDE1{[Glp].V}$$$$V2.0), the “Peptide signal (feature intensity) … 30 min” value was determined as 0.00E+00; the “Peptide signal (feature intensity) … 60 min” value turned out to be 7.64E+06; the “Peptide signal (feature intensity) … 120 min” value stood at 0.00E+00; the “Peptide signal (feature intensity) … 240 min” value amounted to 1.03E+07.

Regarding `CC(C)C[C@H](NC(=O)[C@@H](N)CO)C(=O)N[C@@H](CCCCN)C(=O)O` [Ser-Leu-Lys] (H-Ser-Leu-Lys-OH), the “Peptide signal (feature intensity) … 30 min” value is given as 8.94E+05; the “Peptide signal (feature intensity) … 60 min” value was 6.69E+05; the “Peptide signal (feature intensity) … 120 min” value was found to be 1.60E+06; the “Peptide signal (feature intensity) … 240 min” value is 4.59E+06.

`CC(C)CC(NC(=O)C(N)CO)C(=O)O` (stereo not drawn) [Ser-Leu] (H-Ser-Leu-OH; configuration not given here): the “Peptide signal (feature intensity) … 30 min” value is reported as 0.00E+00; the “Peptide signal (feature intensity) … 60 min” value was 1.15E+07; the “Peptide signal (feature intensity) … 120 min” value stood at 0.00E+00; the “Peptide signal (feature intensity) … 240 min” value is 1.59E+07.

As to `N[C@@H](CO)C(=O)N[C@@H](Cc1ccccc1)C(=O)O` [Ser-Phe], the “Peptide signal (feature intensity) … 30 min” value is 0.00E+00; the “Peptide signal (feature intensity) … 60 min” value stood at 1.38E+06; the “Peptide signal (feature intensity) … 120 min” value is recorded as 0.00E+00; the “Peptide signal (feature intensity) … 240 min” value stood at 4.01E+05.

For `CC(C)[C@H](NC(=O)[C@@H](N)CO)C(=O)O` [Ser-Val] (H-Ser-Val-OH), the “Peptide signal (feature intensity) … 30 min” value came to 0.00E+00; the “Peptide signal (feature intensity) … 60 min” value worked out at 5.23E+06; the “Peptide signal (feature intensity) … 120 min” value came to 0.00E+00; the “Peptide signal (feature intensity) … 240 min” value is 2.48E+07.

`CC(C)C[C@H](NC(=O)[C@@H](N)[C@@H](C)O)C(=O)O` [Thr-Leu] (H-Thr-Leu-OH): the “Peptide signal (feature intensity) … 30 min” value turned out to be 0.00E+00; the “Peptide signal (feature intensity) … 60 min” value was 4.45E+06; the “Peptide signal (feature intensity) … 120 min” value worked out at 0.00E+00; the “Peptide signal (feature intensity) … 240 min” value stood at 8.43E+06.

With `CC(C)CC(NC(=O)C(NC(=O)C(N)C(C)O)C(C)C)C(=O)O` (stereo not drawn) [Thr-Val-Leu] (H-Thr-Val-Leu-OH; configuration not given here), the “Peptide signal (feature intensity) … 30 min” value was determined as 5.29E+05; the “Peptide signal (feature intensity) … 60 min” value is listed as 1.54E+05; the “Peptide signal (feature intensity) … 120 min” value was 0.00E+00; the “Peptide signal (feature intensity) … 240 min” value is reported as 1.07E+06.

In the case of `Cc1cn([C@H]2C[C@H](O)[C@@H](CO)O2)c(=O)[nH]c1=O` [Thymidine], the “Peptide signal (feature intensity) … 30 min” value came out at 6.40E+05; the “Peptide signal (feature intensity) … 60 min” value stood at 1.66E+05; the “Peptide signal (feature intensity) … 120 min” value turned out to be 0.00E+00; the “Peptide signal (feature intensity) … 240 min” value is on record as 0.00E+00.

Consider `N[C@@H](Cc1c[nH]c2ccccc12)C(=O)N[C@@H](CCC(=O)O)C(=O)O` [Trp-Glu] (H-Trp-Glu-OH), for which the “Peptide signal (feature intensity) … 30 min” value amounted to 0.00E+00; the “Peptide signal (feature intensity) … 60 min” value came out at 0.00E+00; the “Peptide signal (feature intensity) … 120 min” value is listed as 0.00E+00; the “Peptide signal (feature intensity) … 240 min” value worked out at 1.26E+07.

Consider `CSCC[C@H](NC(=O)[C@@H](N)Cc1c[nH]c2ccccc12)C(=O)O` [Trp-Met] (H-Trp-Met-OH), for which the “Peptide signal (feature intensity) … 30 min” value was found to be 0.00E+00; the “Peptide signal (feature intensity) … 60 min” value stood at 0.00E+00; the “Peptide signal (feature intensity) … 120 min” value came out at 0.00E+00; the “Peptide signal (feature intensity) … 240 min” value is given as 1.16E+06.

Turning to `N[C@@H](Cc1c[nH]c2ccccc12)C(=O)NCC(=O)O` [Trp-gly] (H-Trp-Gly-OH), the “Peptide signal (feature intensity) … 30 min” value is reported as 0.00E+00; the “Peptide signal (feature intensity) … 60 min” value turned out to be 0.00E+00; the “Peptide signal (feature intensity) … 120 min” value is listed as 0.00E+00; the “Peptide signal (feature intensity) … 240 min” value worked out at 6.50E+05.

Take `CC(C)CC(NC(=O)C(N)Cc1ccc(O)cc1)C(=O)O` (stereo not drawn) [Tyr-Leu] (H-Tyr-Leu-OH; configuration not given here): the “Peptide signal (feature intensity) … 30 min” value worked out at 2.28E+06; the “Peptide signal (feature intensity) … 60 min” value is 2.16E+06; the “Peptide signal (feature intensity) … 120 min” value is listed as 0.00E+00; the “Peptide signal (feature intensity) … 240 min” value worked out at 0.00E+00.

With `NC(Cc1ccc(O)cc1)C(=O)NC(Cc1ccc(O)cc1)C(=O)O` (stereo not drawn) [Tyr-Tyr] (H-Tyr-Tyr-OH; configuration not given here), the “Peptide signal (feature intensity) … 30 min” value is on record as 2.40E+05; the “Peptide signal (feature intensity) … 60 min” value stood at 1.86E+06; the “Peptide signal (feature intensity) … 120 min” value came out at 0.00E+00; the “Peptide signal (feature intensity) … 240 min” value was 0.00E+00.
